{
  "source": "PubChem BioAssay AID204",
  "about": "(DTP/NCI, 2004)",
  "test_system": "BDF1 mice, P288 methotrexate-resistant leukemia, survival T/C",
  "test": "NCI In Vivo Anticancer Drug Screen. Data for tumor model P288 Lymphocytic Leukemia resistant to methotrexate; NSC 740 (intraperitoneal) in B6D2F1 (BDF1) mice",
  "conditions": "endpoint: median survival time, higher = longer survival",
  "method": "The antitumor activity of compounds was measured in mice bearing transplantable tumors. Survival or tumor size were measured and the results are expressed as the measurement made in the treated group (T) divided by the measurement made in the vehicle treated control group (C). The tumor model used in this assay is P288 Lymphocytic Leukemia resistant to methotrexate; NSC 740 (intraperitoneal) in B6D2F1 (BDF1) mice",
  "key": {"[1]": {"conditions": "dose: 60.0 mg/kg/injection, schedule: Q01DX010 (ip), vehicle: saline"}, "[2]": {"conditions": "dose: 120.0 mg/kg/injection, schedule: Q01DX010 (ip), vehicle: saline"}, "[3]": {"conditions": "dose: 25.0 mg/kg/injection, schedule: Q01DX010 (sc), vehicle: steriod suspending solution"}, "[4]": {"conditions": "dose: 50.0 mg/kg/injection, schedule: Q01DX010 (sc), vehicle: steriod suspending solution"}, "[5]": {"conditions": "dose: 100.0 mg/kg/injection, schedule: Q01DX010 (sc), vehicle: steriod suspending solution"}, "[6]": {"conditions": "dose: 5.0 mg/kg/injection, schedule: Q01DX010 (ip), vehicle: saline"}, "[7]": {"conditions": "dose: 10.0 mg/kg/injection, schedule: Q01DX010 (ip), vehicle: saline"}, "[8]": {"conditions": "dose: 20.0 mg/kg/injection, schedule: Q01DX010 (ip), vehicle: saline"}, "[9]": {"conditions": "dose: 40.0 mg/kg/injection, schedule: Q01DX010 (ip), vehicle: saline"}, "[10]": {"conditions": "dose: 12.5 mg/kg/injection, schedule: Q01DX010 (ip), vehicle: saline"}, "[11]": {"conditions": "dose: 25.0 mg/kg/injection, schedule: Q01DX010 (ip), vehicle: saline"}, "[12]": {"conditions": "dose: 8.0 mg/kg/injection, schedule: Q01DX010 (ip), vehicle: saline"}, "[13]": {"conditions": "dose: 125.0 micrograms/kg/injection, schedule: Q01DX010 (ip), vehicle: saline"}, "[14]": {"conditions": "dose: 250.0 micrograms/kg/injection, schedule: Q01DX010 (ip), vehicle: saline"}},
  "note": "“And” between values parts separate entries of the source, which are not always exact repeats. Equal values may be shown once. Toxic doses and inconclusive results are not listed.",
  "data": [
    {"smiles": "C[N+](C)(C)c1ncnc2nc[nH]c12", "values": [
      {"measurement": "T/C", "setting": "dose: 15.0 mg/kg/injection, schedule: Q01DX010 (ip), vehicle: saline", "result": "90 % of control"},
      {"measurement": "T/C", "setting": "dose: 30.0 mg/kg/injection, schedule: Q01DX010 (ip), vehicle: saline", "result": "100 % of control"},
      {"measurement": "T/C", "setting": "[1]", "result": "90 % of control and 100 % of control"},
      {"measurement": "T/C", "setting": "[2]", "result": "105 % of control and 113 % of control"}
    ]},
    {"smiles": "C[C@]12C=CC(=O)C=C1CC[C@@H]1[C@@H]2[C@@H](O)C[C@@]2(C)[C@H]1CC[C@]2(O)C(=O)CO", "values": [
      {"measurement": "T/C", "setting": "[3]", "result": "118 % of control"},
      {"measurement": "T/C", "setting": "[4]", "result": "109 % of control"},
      {"measurement": "T/C", "setting": "[5]", "result": "100 % of control"},
      {"measurement": "T/C", "setting": "dose: 200.0 mg/kg/injection, schedule: Q01DX010 (sc), vehicle: steriod suspending solution", "result": "100 % of control"}
    ]},
    {"smiles": "CN(C)c1ccc(/C=C/c2ccnc3ccccc23)cc1", "values": [
      {"measurement": "T/C", "setting": "[6]", "result": "104 % of control"},
      {"measurement": "T/C", "setting": "[7]", "result": "90 % of control and 100 % of control"},
      {"measurement": "T/C", "setting": "[8]", "result": "90 % of control and 100 % of control"},
      {"measurement": "T/C", "setting": "[9]", "result": "90 % of control and 91 % of control"}
    ]},
    {"smiles": "CC(=O)O[C@]1(C(C)=O)CC[C@H]2[C@@H]3C[C@H](C)C4=CC(=O)C=C[C@]4(C)[C@@]3(F)[C@@H](O)C[C@@]21C", "values": [
      {"measurement": "T/C", "setting": "dose: 12.5 mg/kg/injection, schedule: Q01DX010 (sc), vehicle: steriod suspending solution", "result": "100 % of control"},
      {"measurement": "T/C", "setting": "[3]", "result": "110 % of control"},
      {"measurement": "T/C", "setting": "[4]", "result": "105 % of control"},
      {"measurement": "T/C", "setting": "[5]", "result": "100 % of control"}
    ]},
    {"smiles": "CN(N=O)C(=O)NC(C=O)C(O)C(O)C(O)CO", "note": "(stereo not given)", "values": [
      {"measurement": "T/C", "setting": "[10]", "result": "100 % of control"},
      {"measurement": "T/C", "setting": "[11]", "result": "115 % of control"},
      {"measurement": "T/C", "setting": "dose: 100.0 mg/kg/injection, schedule: Q01DX010 (ip), vehicle: saline", "result": "105 % of control"}
    ]},
    {"smiles": "O=C(Nc1ccc(C2=NCCN2)cc1)c1cccc(C(=O)Nc2ccc(C3=NCCN3)cc2)c1", "values": [
      {"measurement": "T/C", "setting": "[12]", "result": "155 % of control and 166 % of control"},
      {"measurement": "T/C", "setting": "dose: 16.0 mg/kg/injection, schedule: Q01DX010 (ip), vehicle: saline", "result": "185 % of control and 194 % of control"},
      {"measurement": "T/C", "setting": "dose: 32.0 mg/kg/injection, schedule: Q01DX010 (ip), vehicle: saline", "result": "200 % of control and 238 % of control"},
      {"measurement": "T/C", "setting": "dose: 64.0 mg/kg/injection, schedule: Q01DX010 (ip), vehicle: saline", "result": "250 % of control and 255 % of control"}
    ]},
    {"smiles": "OCC1OC(n2cnc3c(=S)nc[nH]c32)C(O)C1O", "note": "(stereo not given)", "values": [
      {"measurement": "T/C", "setting": "[8]", "result": "100 % of control and 105 % of control"},
      {"measurement": "T/C", "setting": "[9]", "result": "95 % of control and 105 % of control"},
      {"measurement": "T/C", "setting": "dose: 80.0 mg/kg/injection, schedule: Q01DX010 (ip), vehicle: saline", "result": "100 % of control and 110 % of control"},
      {"measurement": "T/C", "setting": "dose: 160.0 mg/kg/injection, schedule: Q01DX010 (ip), vehicle: saline", "result": "100 % of control and 105 % of control"}
    ]},
    {"smiles": "O=C(Nc1ccc(NC(=O)Nc2cccc(C3=NCCN3)c2)cc1)Nc1cccc(C2=NCCN2)c1", "values": [
      {"measurement": "T/C", "setting": "[1]", "result": "200 % of control and 225 % of control"},
      {"measurement": "T/C", "setting": "[2]", "result": "250 % of control and 322 % of control"},
      {"measurement": "T/C", "setting": "dose: 240.0 mg/kg/injection, schedule: Q01DX010 (ip), vehicle: saline", "result": "183 % of control and 235 % of control"},
      {"measurement": "T/C", "setting": "dose: 480.0 mg/kg/injection, schedule: Q01DX010 (ip), vehicle: saline", "result": "100 % of control and 120 % of control"}
    ]},
    {"smiles": "Cn1cnc([N+](=O)[O-])c1Sc1nc(N)nc2nc[nH]c12", "values": [
      {"measurement": "T/C", "setting": "dose: 2.5 mg/kg/injection, schedule: Q01DX010 (ip), vehicle: saline", "result": "109 % of control"},
      {"measurement": "T/C", "setting": "[6]", "result": "90 % of control"},
      {"measurement": "T/C", "setting": "[7]", "result": "109 % of control"},
      {"measurement": "T/C", "setting": "[8]", "result": "109 % of control"}
    ]},
    {"smiles": "C[n+]1c2ccccc2nc2c(N)cc(N)cc21", "values": [
      {"measurement": "T/C", "setting": "[12]", "result": "115 % of control"}
    ]},
    {"smiles": "CC[C@]1(O)C[C@H]2CN(CCc3c([nH]c4ccccc34)[C@@](C(=O)OC)(c3cc4c(cc3OC)N(C=O)[C@H]3[C@@](O)(C(=O)OC)[C@H](OC(C)=O)[C@]5(CC)C=CCN6CC[C@]43[C@@H]65)C2)C1", "values": [
      {"measurement": "T/C", "setting": "dose: 0.03 mg/kg/injection, schedule: Q01DX010 (ip), vehicle: saline", "result": "121 % of control and 123 % of control"},
      {"measurement": "T/C", "setting": "dose: 0.06 mg/kg/injection, schedule: Q01DX010 (ip), vehicle: saline", "result": "157 % of control"},
      {"measurement": "T/C", "setting": "dose: 0.12 mg/kg/injection, schedule: Q01DX010 (ip), vehicle: saline", "result": "161 % of control and 162 % of control"},
      {"measurement": "T/C", "setting": "dose: 0.25 mg/kg/injection, schedule: Q01DX010 (ip), vehicle: saline", "result": "90 % of control"}
    ]},
    {"smiles": "CSCS(=O)C[C@H](CO)NC(=O)/C=C/c1c(C)[nH]c(=O)[nH]c1=O", "note": "(stereo not given in full)", "values": [
      {"measurement": "T/C", "setting": "dose: 62.5 micrograms/kg/injection, schedule: Q01DX010 (ip), vehicle: saline", "result": "109 % of control"},
      {"measurement": "T/C", "setting": "[13]", "result": "100 % of control"},
      {"measurement": "T/C", "setting": "[14]", "result": "100 % of control"},
      {"measurement": "T/C", "setting": "dose: 500.0 micrograms/kg/injection, schedule: Q01DX010 (ip), vehicle: saline", "result": "90 % of control"}
    ]},
    {"smiles": "S=P(N1CC1)(N1CC1)N1CC1", "values": [
      {"measurement": "T/C", "setting": "dose: 0.75 mg/kg/injection, schedule: Q01DX010 (ip), vehicle: saline", "result": "100 % of control and 111 % of control"},
      {"measurement": "T/C", "setting": "dose: 1.5 mg/kg/injection, schedule: Q01DX010 (ip), vehicle: saline", "result": "111 % of control"},
      {"measurement": "T/C", "setting": "dose: 6.0 mg/kg/injection, schedule: Q01DX010 (ip), vehicle: saline", "result": "116 % of control and 120 % of control"}
    ]},
    {"smiles": "N#C[C@@H]1C2C=CC(CC2)[C@H]1C#N", "values": [
      {"measurement": "T/C", "setting": "dose: 31.0 micrograms/kg/injection, schedule: Q01DX010 (ip), vehicle: saline", "result": "90 % of control"},
      {"measurement": "T/C", "setting": "dose: 63.0 micrograms/kg/injection, schedule: Q01DX010 (ip), vehicle: saline", "result": "118 % of control"},
      {"measurement": "T/C", "setting": "[13]", "result": "109 % of control"},
      {"measurement": "T/C", "setting": "[14]", "result": "90 % of control"}
    ]},
    {"smiles": "N=[N+]=CC(=O)OCC(N)C(=O)O", "note": "(stereo not given)", "values": [
      {"measurement": "T/C", "setting": "dose: 3.13 mg/kg/injection, schedule: Q01DX010 (ip), vehicle: saline", "result": "110 % of control"},
      {"measurement": "T/C", "setting": "dose: 6.25 mg/kg/injection, schedule: Q01DX010 (ip), vehicle: saline", "result": "112 % of control and 120 % of control"},
      {"measurement": "T/C", "setting": "[10]", "result": "108 % of control and 120 % of control"},
      {"measurement": "T/C", "setting": "[11]", "result": "120 % of control"}
    ]}
  ]
}
